Test results from ChEMBL document CHEMBL3734707, “Synthesis and biological evaluation of pyrazolopyrimidines as potential antibacterial agents” (2015).
Activity calls are given as the source filed them. No cut-off for these calls is given here.

Legend:
Pseudomonas aeruginosa [1] = experiment: Antibacterial activity against Pseudomonas aeruginosa ATCC 27853 at 0.5 mM after 24 to 48 hrs by Kirby-Bauer disc diffusion susceptibility test; format: functional; conditions: read-out: DIZ
[2] = system: Burkholderia thailandensis; experiment: Antibacterial activity against Burkholderia thailandensis E264 at 0.5 mM after 24 to 48 hrs by Kirby-Bauer disc diffusion susceptibility test; format: functional; conditions: read-out: DIZ
[3] = system: Burkholderia thailandensis; experiment: Antibacterial activity against Burkholderia thailandensis E264 at 0.1 mM after 24 to 48 hrs by Kirby-Bauer disc diffusion susceptibility test; format: functional; conditions: read-out: DIZ
[4] = biological target: T1, 4-diphosphocytidyl-2-C-methyl-D-erythritol kinase (Burkholderia thailandensis (strain ATCC 700388 / DSM 13276 / CIP106301 / E264)) (UniProt Q2T1B6); experiment: Binding affinity to Burkholderia thailandensis E264 recombinant IspE (1 to 293 residues) at 250 uM by STD-NMR analysis in presence of ADP and CDP
T1 sequence (whole entry): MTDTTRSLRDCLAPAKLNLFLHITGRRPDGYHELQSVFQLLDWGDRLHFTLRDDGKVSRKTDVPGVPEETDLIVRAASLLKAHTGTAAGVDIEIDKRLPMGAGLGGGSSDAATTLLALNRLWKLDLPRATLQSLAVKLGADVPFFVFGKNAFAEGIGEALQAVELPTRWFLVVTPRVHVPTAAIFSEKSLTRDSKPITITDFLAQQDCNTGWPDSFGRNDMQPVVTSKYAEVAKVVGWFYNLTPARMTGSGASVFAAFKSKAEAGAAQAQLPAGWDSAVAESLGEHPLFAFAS

[5] = system: Burkholderia thailandensis; experiment: Antibacterial activity against Burkholderia thailandensis E264 at 1 mM after 24 to 48 hrs by Kirby-Bauer disc diffusion susceptibility test; format: functional; conditions: read-out: DIZ
[6] = biological target: T1, 4-diphosphocytidyl-2-C-methyl-D-erythritol kinase (Burkholderia thailandensis (strain ATCC 700388 / DSM 13276 / CIP106301 / E264)); experiment: Binding affinity to Burkholderia thailandensis E264 recombinant IspE (1 to 293 residues) at 250 uM by STD-NMR analysis in presence of ADP
Pseudomonas aeruginosa [7] = experiment: Antibacterial activity against Pseudomonas aeruginosa ATCC 27853 at 0.1 mM after 24 to 48 hrs by Kirby-Bauer disc diffusion susceptibility test; format: functional; conditions: read-out: DIZ
[8] = biological target: T1, 4-diphosphocytidyl-2-C-methyl-D-erythritol kinase (Burkholderia thailandensis (strain ATCC 700388 / DSM 13276 / CIP106301 / E264)); experiment: Binding affinity to Burkholderia thailandensis E264 recombinant IspE (1 to 293 residues) assessed as maximum spectral signal at 250 uM by STD-NMR analysis
Pseudomonas aeruginosa [9] = experiment: Antibacterial activity against Pseudomonas aeruginosa ATCC 27853 at 1 mM after 24 to 48 hrs by Kirby-Bauer disc diffusion susceptibility test; format: functional; conditions: read-out: DIZ
[10] = biological target: T2, 2-C-methyl-D-erythritol 4-phosphate cytidylyltransferase (Burkholderia thailandensis (strain ATCC 700388 / DSM 13276 / CIP106301 / E264)) (UniProt Q2SWT6); experiment: Binding affinity to Burkholderia thailandensis E264 recombinant IspD (1 to 236 residues) assessed as maximum spectral signal at 250 uM by STD-NMR analysis
T2 sequence (whole entry): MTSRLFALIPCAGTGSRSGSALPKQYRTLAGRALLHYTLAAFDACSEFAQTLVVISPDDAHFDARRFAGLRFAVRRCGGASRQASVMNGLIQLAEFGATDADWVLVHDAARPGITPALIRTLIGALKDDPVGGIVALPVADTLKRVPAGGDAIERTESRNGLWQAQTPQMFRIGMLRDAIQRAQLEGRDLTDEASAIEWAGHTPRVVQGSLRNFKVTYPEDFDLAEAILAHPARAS

[11] = biological target: T2, 2-C-methyl-D-erythritol 4-phosphate cytidylyltransferase (Burkholderia thailandensis (strain ATCC 700388 / DSM 13276 / CIP106301 / E264)); experiment: Binding affinity to Burkholderia thailandensis E264 recombinant IspD (1 to 236 residues) at 250 uM by STD-NMR analysis in presence of CDP

| Structure (SMILES) | zone of inhibition at 500 µM (Pseudomonas aeruginosa [1]) [mm] | zone of inhibition at 500 µM [2] [mm] | zone of inhibition at 100 µM [3] [mm] | Activity [4] | zone of inhibition at 1000 µM [5] [mm] | Activity [6] | zone of inhibition at 100 µM (Pseudomonas aeruginosa [7]) [mm] | %max [8] [%] | zone of inhibition at 1000 µM (Pseudomonas aeruginosa [9]) [mm] | %max [10] [%] | Activity [11] |
| --- | --- | --- | --- | --- | --- | --- | --- | --- | --- | --- | --- |
| Cn1ncc2c(NCCc3c[nH]c4ccccc34)ncnc21 | 0 | 12 | 0 | inactive | 14 | Active | 0 | 14 | 0 |  |  |
| Cn1ncc2c(NCCc3c(F)cccc3Cl)ncnc21 |  |  |  | inactive |  | Active |  | 14 |  | 6 | inactive |
| C[C@H](Nc1ncnc2c1cnn2C)c1ccccc1 |  |  |  | inactive |  | Active |  | 17 |  |  |  |
| Cn1ncc2c(NCCc3ccc(Cl)cc3)ncnc21 |  |  |  | inactive |  | Active |  | 12 |  |  |  |
| NC[C@H]1O[C@H](O[C@H]2[C@H](O)[C@@H](O[C@H]3O[C@H](CO)[C@@H](O)[C@H](N)[C@H]3O)[C@H](N)C[C@@H]2N)[C@H](O)[C@@H](O)[C@@H]1O [KANAMYCIN] | 0 | 22 | 6 |  | 30 |  | 0 |  | 0 |  |  |
| Cn1ncc2c(NCc3ccccc3)ncnc21 |  |  |  | inactive |  | Active |  | 13 |  |  |  |
| CC(C)(C)n1ncc2c(NCCO)ncnc21 | 12 | 8 | 0 |  | 12 |  | 0 |  | 20 |  |  |
| CC(C)(C)n1ncc2c(NCc3ccco3)ncnc21 |  |  |  | inactive |  | Active |  | 17 |  |  |  |
| CC(C)(C)n1ncc2c(NCCc3c(F)cccc3Cl)ncnc21 |  |  |  | inactive |  | Active |  | 17 |  | 10 | inactive |
| Cn1ncc2c(NCc3ccc(Cl)c(Cl)c3)ncnc21 |  |  |  | inactive |  | Active |  | 24 |  | 6 | Active |
| CC(C)(C)n1ncc2c(NCc3ccccc3)ncnc21 |  |  |  | inactive |  | Active |  | 15 |  |  |  |
| Cn1ncc2c(NCCc3cccc(F)c3)ncnc21 |  |  |  | inactive |  | Active |  | 17 |  |  |  |
| Cn1ncc2c(NCc3ccccc3F)ncnc21 |  |  |  | inactive |  | Active |  | 14 |  |  |  |
| CC(C)(C)n1ncc2c(NCc3cccc([N+](=O)[O-])c3)ncnc21 |  |  |  | inactive |  | Active |  | 21 |  |  |  |
| Cn1ncc2c(NCCc3ccccc3F)ncnc21 |  |  |  | inactive |  | Active |  | 10 |  |  |  |
| CC(C)(C)n1ncc2c(NCCc3c(Cl)cccc3Cl)ncnc21 |  |  |  | inactive |  | Active |  | 12 |  |  |  |
| Cn1ncc2c(NCCc3ccc(F)cc3)ncnc21 |  |  |  | inactive |  | Active |  | 11 |  |  |  |
| Cn1ncc2c(NCc3cccc(F)c3)ncnc21 |  |  |  | inactive |  | Active |  | 24 |  |  |  |
| Cn1ncc2c(NCc3ccc(F)cc3)ncnc21 |  |  |  | inactive |  | Active |  | 20 |  |  |  |
| CC(C)(C)n1ncc2c(NCc3ccc(Cl)c(Cl)c3)ncnc21 |  |  |  | inactive |  | Active |  | 21 |  |  |  |
| Cn1ncc2c(NCc3ccc(Cl)cc3)ncnc21 |  |  |  | inactive |  | Active |  | 12 |  | 6 | Active |
| Cn1ncc2c(NCCc3ccc(Cl)cc3Cl)ncnc21 |  |  |  | inactive |  | Active |  | 28 |  | 8 | Active |
| Cn1ncc2c(NCCc3ccc(O)cc3)ncnc21 |  |  |  | inactive |  | Active |  | 16 |  | 14 | Active |
